The record followed here is patent US20260083851A1 (AVILAR THERAPEUTICS, INC., priority 2022, published 2026).

Assay [1] concerns the target T1, ASGP receptor (biotinylated ASGPR) (Homo sapiens, UniProt P07306).
T1 construct: biotin (biotinylated)
T1 sequence (P07306 1-291): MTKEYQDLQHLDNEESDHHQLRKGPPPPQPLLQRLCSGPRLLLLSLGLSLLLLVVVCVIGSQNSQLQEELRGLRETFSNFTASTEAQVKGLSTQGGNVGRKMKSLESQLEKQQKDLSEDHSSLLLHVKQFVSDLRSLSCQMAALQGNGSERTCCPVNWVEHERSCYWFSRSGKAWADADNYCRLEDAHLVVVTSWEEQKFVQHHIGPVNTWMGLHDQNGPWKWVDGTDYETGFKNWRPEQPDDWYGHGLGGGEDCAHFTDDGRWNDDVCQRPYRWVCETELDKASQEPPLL
The assay is classed as binding. The settings on record: SPR; Table 2; read-out: ASGPR SPR Binding KD.

In a further assay the target is TNF (Homo sapiens, UniProt P01375). The experiment in a line: TNF FP Assay. The settings on record: TNF 20 nM, 25° C., 2 hours. The assay is classed as binding. On the procedure: TNF (20 nM) and test compound in 47 mM HEPES pH 6.5, 47 mM NaCl, 0.9 mM EDTA, 0.007% Triton X-100 were incubated at 25° C. for 2 hours. Fluorescence data was read with an Envision and plotted versus Compound concentration and fit to a single-site binding model.
Chain of TNF (P01375 77-233 limits assumed): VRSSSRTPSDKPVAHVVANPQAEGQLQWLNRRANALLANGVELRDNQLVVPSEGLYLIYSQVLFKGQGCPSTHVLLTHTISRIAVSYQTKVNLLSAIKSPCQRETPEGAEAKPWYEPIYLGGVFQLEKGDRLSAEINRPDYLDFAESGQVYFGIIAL

`O=C(CC(=O)NC[C@H]1OC[C@H](Nc2cncc(C(F)(F)F)n2)[C@@H](O)[C@H]1O)NCCOCCOCCOCc1ccc(-c2cccc3ccncc23)c(OCCc2ccc(-c3cccc4ccncc34)cc2)c1` [compound 1]: in assay [1], the Kd was less than 100 nM. Moreover, the 50% inhibitory concentration (IC50) against TNF (Table 2) was in the range of 100 to 500 nM.

Turning to `O=C(CCOCC(COCCC(=O)NCCOCCOCCOCCOC[C@H]1OC[C@H](Nc2cncc(C(F)(F)F)n2)[C@@H](O)[C@H]1O)NCC(=O)N1CCN(Cc2ccc(-c3c[nH]c4ccncc34)c(OCCc3ccc(-c4cccc5ccncc45)cc3)c2)CC1)NCCOCCOCCOCCOC[C@H]1OC[C@H](Nc2cncc(C(F)(F)F)n2)[C@@H](O)[C@H]1O` [compound 2], the dissociation constant (Kd) in assay [1] is less than 100 nM. Also, the 50% inhibitory concentration (IC50) on TNF (Table 2) was greater than 1000 nM. Regarding `O=C(COCCOCC(=O)N1CCN(Cc2ccc(-c3c[nH]c4ccncc34)c(OCCc3ccc(-c4cccc5ccncc45)cc3)c2)CC1)NC[C@H]1OC[C@H](Nc2cncc(C(F)(F)F)n2)[C@@H](O)[C@H]1O` [compound 3], in assay [1], the Kd is less than 100 nM. This compound showed an IC50 against TNF (Table 2) of less than 100 nM. In the case of `O=C(COc1ccc(CN2CCN(C[C@H]3OC[C@H](Nc4cncc(C(F)(F)F)n4)[C@@H](O)[C@H]3O)CC2)cc1)N1CCN(Cc2ccc(-c3c[nH]c4ccncc34)c(OCCc3ccc(-c4cccc5ccncc45)cc3)c2)CC1` [compound 4], the dissociation constant (Kd) in assay [1] was less than 100 nM. This compound also returned an IC50 against TNF (Table 2, numeric bound) greater than 112 nM. Take `O=C(CCOCC(COCCC(=O)NCCOCCOCCOCCOC[C@H]1OC[C@H](Nc2cncc(C(F)(F)F)n2)[C@@H](O)[C@H]1O)NC(=O)COCCOCCOCCOCCOCC(=O)N1CCN(Cc2ccc(-c3c[nH]c4ccncc34)c(OCCc3ccc(-c4cccc5ccncc45)cc3)c2)CC1)NCCOCCOCCOCCOC[C@H]1OC[C@H](Nc2cncc(C(F)(F)F)n2)[C@@H](O)[C@H]1O` [compound 5]: on TNF (Table 2, numeric bound), the IC50 is greater than 136 nM. As to `O=C(CNC[C@H]1OC[C@H](Nc2cncc(C(F)(F)F)n2)[C@@H](O)[C@H]1O)NCCOCCOCCOCc1ccc(-c2cccc3ccncc23)c(OCCc2ccc(-c3cccc4ccncc34)cc2)c1` [compound 6], on TNF (Table 2), the IC50 lay in the range of 100 to 500 nM. In the case of `O=C(COCCOCCOCCOCCOCC(=O)N1CCN(Cc2ccc(-c3c[nH]c4ccncc34)c(OCCc3ccc(-c4cccc5ccncc45)cc3)c2)CC1)NC[C@H]1OC[C@H](Nc2cncc(C(F)(F)F)n2)[C@@H](O)[C@H]1O` [compound 7], in assay [1], the Kd is less than 100 nM. Further, the IC50 on TNF (Table 2) was less than 100 nM. With `O=C(NC[C@H]1OC[C@H](Nc2cncc(C(F)(F)F)n2)[C@@H](O)[C@H]1O)N1CCN(Cc2ccc(-c3c[nH]c4ccncc34)c(OCCc3ccc(-c4cccc5ccncc45)cc3)c2)CC1` [compound 8], the Kd in assay [1] was less than 100 nM. Also, the 50% inhibitory concentration (IC50) against TNF (Table 2) is greater than 1000 nM. For the compound `O=C(CCOCC(COCCC(=O)NCCOCCOCCOCCOC[C@H]1OC[C@H](Nc2cncc(C(F)(F)F)n2)[C@@H](O)[C@H]1O)NC(=O)COCCOCCOCC(=O)N1CCN(Cc2ccc(-c3c[nH]c4ccncc34)c(OCCc3ccc(-c4cccc5ccncc45)cc3)c2)CC1)NCCOCCOCCOCCOC[C@H]1OC[C@H](Nc2cncc(C(F)(F)F)n2)[C@@H](O)[C@H]1O` [compound 9], the Kd in assay [1] was less than 100 nM. Also, on TNF (Table 2), the 50% inhibitory concentration (IC50) is greater than 1000 nM.

For the compound `CC1(C)C(=O)c2ccc(-c3cnc(N4CCN5C(=O)N(CCOCCNC(=O)CNC[C@H]6OC[C@H](Nc7cncc(C(F)(F)F)n7)[C@@H](O)[C@H]6O)C[C@@H]5C4)nc3)nc2N1Cc1cccnc1C#N` [compound 10], the Kd in assay [1] was less than 100 nM. On TNF (Table 2), the IC50 is greater than 1000 nM.

For the compound `CC1(C)C(=O)c2ccc(-c3cnc(N4CCN5C(=O)N(CCCNC(=O)CCN6CCN(CC(=O)NC[C@H]7OC[C@H](Nc8cncc(C(F)(F)F)n8)[C@@H](O)[C@H]7O)CC6)C[C@@H]5C4)nc3)nc2N1Cc1cccnc1C#N` [compound 11], the Kd in assay [1] was less than 100 nM. Moreover, the IC50 on TNF (Table 2) lay in the range of 100 to 500 nM.

As for `CC1(C)C(=O)c2ccc(-c3cnc(N4CCN5C(=O)N(CCCNC(=O)COc6ccc(CN7CCN(C[C@H]8OC[C@H](Nc9cncc(C(F)(F)F)n9)[C@@H](O)[C@H]8O)CC7)cc6)C[C@@H]5C4)nc3)nc2N1Cc1cccnc1C#N` [compound 12], the Kd in assay [1] is less than 100 nM. Further, the IC50 at TNF (Table 2) fell in the range of 100 to 500 nM. On to `CC1(C)C(=O)c2ccc(-c3cnc(N4CCN5C(=O)N(CCCNC(=O)c6ccc(C(=O)NC[C@H]7OC[C@H](Nc8cncc(C(F)(F)F)n8)[C@@H](O)[C@H]7O)cc6)C[C@@H]5C4)nc3)nc2N1Cc1cccnc1C#N` [compound 13], for which the Kd in assay [1] is less than 100 nM. The compound also displayed an IC50 against TNF (Table 2) greater than 1000 nM.

Turning to `CC1(C)C(=O)c2ccc(-c3cnc(N4CCN5C(=O)N(CCCNC(=O)CNC[C@H]6OC[C@H](Nc7cncc(C(F)(F)F)n7)[C@@H](O)[C@H]6O)C[C@@H]5C4)nc3)nc2N1Cc1cccnc1C#N` [compound 14], the dissociation constant (Kd) in assay [1] is less than 100 nM. For the same compound, the IC50 against TNF (Table 2) lay within 100 to 500 nM. The matching figures for `CC1(C)C(=O)c2ccc(-c3cnc(N4CCN5C(=O)N(CCCNC(=O)[C@H]6CC[C@H](C(=O)NC[C@H]7OC[C@H](Nc8cncc(C(F)(F)F)n8)[C@@H](O)[C@H]7O)CC6)C[C@@H]5C4)nc3)nc2N1Cc1cccnc1C#N` [compound 15]: less than 100 nM and greater than 1000 nM. On to `CC1(C)C(=O)c2ccc(-c3cnc(N4CCN5C(=O)N(CCCNC(=O)COc6cccc(CC(=O)NC[C@H]7OC[C@H](Nc8cncc(C(F)(F)F)n8)[C@@H](O)[C@H]7O)c6)C[C@@H]5C4)nc3)nc2N1Cc1cccnc1C#N` [compound 16], for which the Kd in assay [1] is less than 100 nM. This compound returned a 50% inhibitory concentration (IC50) at TNF (Table 2) greater than 1000 nM. With `CC1(C)C(=O)c2ccc(-c3cnc(N4CCN5C(=O)N(CCOCCNC(=O)[C@H]6CC[C@H](C(=O)NC[C@H]7OC[C@H](Nc8cncc(C(F)(F)F)n8)[C@@H](O)[C@H]7O)CC6)C[C@@H]5C4)nc3)nc2N1Cc1cccnc1C#N` [compound 17], in assay [1], the dissociation constant (Kd) was less than 100 nM. This compound also gave an IC50 against TNF (Table 2) of 500 to 1000 nM. Compound `CC1(C)C(=O)c2ccc(-c3cnc(N4CCN5C(=O)N(CCOCCNC(=O)c6ccc(C(=O)NC[C@H]7OC[C@H](Nc8cncc(C(F)(F)F)n8)[C@@H](O)[C@H]7O)cc6)C[C@@H]5C4)nc3)nc2N1Cc1cccnc1C#N` [compound 18] came in with an IC50 at TNF (Table 2) greater than 1000 nM.
